Laboratory results published in ChEMBL document CHEMBL4311942, “Design of Trp-Rich Dodecapeptides with Broad-Spectrum Antimicrobial Potency and Membrane-Disruptive Mechanism” (J Med Chem, 2019).
In brackets after ≈: the same amount, converted by molar mass. Where a SMILES comes first, the peptide text is derived from it.

Tests used:
Escherichia coli [1] = test: Antibacterial activity against Escherichia coli UB1005 incubated for 18 to 24 hrs by broth microdilution method; type: functional
[2] = Resistance index, ratio of MIC for antibacterial activity against ciprofloxacin-resistant Escherichia coli to MIC for Escherichia coli ATCC 25922 incubated for 18 to 24 hrs by broth microdilution method; type: functional
Pseudomonas aeruginosa = test: Antibacterial activity against Pseudomonas aeruginosa 25349 clinical isolate incubated for 18 to 24 hrs by broth microdilution method; type: functional
Acinetobacter baumannii [3] = test: Antibacterial activity against Acinetobacter baumannii AB1901 clinical isolate incubated for 18 to 24 hrs by broth microdilution method; type: functional
Acinetobacter baumannii [4] = test: Antibacterial activity against Acinetobacter baumannii AB1902 clinical isolate incubated for 18 to 24 hrs by broth microdilution method; type: functional
Staphylococcus aureus [5] = test: Antibacterial activity against Staphylococcus aureus ATCC 29213 incubated for 18 to 24 hrs by broth microdilution method; type: functional
Salmonella typhimurium = test: Antibacterial activity against Salmonella enterica serovar typhimurium C77-31 incubated for 18 to 24 hrs by broth microdilution method; type: functional, Salmonella enterica subsp. enterica serovar Typhimurium
Staphylococcus aureus [6] = test: Antibacterial activity against Staphylococcus aureus 11011 incubated for 18 to 24 hrs by broth microdilution method; type: functional
Escherichia coli [7] = test: Antibacterial activity against Escherichia coli ATCC 25922 incubated for 18 to 24 hrs by broth microdilution method; type: functional
Escherichia coli [8] = test: Antibacterial activity against Escherichia coli 20411 clinical isolate incubated for 18 to 24 hrs by broth microdilution method; type: functional
[9] = system: Staphylococcus epidermidis; test: Antibacterial activity against Staphylococcus epidermidis ATCC 12228 incubated for 18 to 24 hrs by broth microdilution method; type: functional
Escherichia coli [10] = test: Antibacterial activity against ciprofloxacin-resistant Escherichia coli ATCC 25922 incubated for 18 to 24 hrs; type: functional
Staphylococcus aureus [11] = test: Antibacterial activity against Staphylococcus aureus ATCC 25923 incubated for 18 to 24 hrs by broth microdilution method; type: functional
[12] = Cytotoxicity against mouse RAW264.7 cells assessed as cell survival at <= 32 uM after 24 hrs by MTT assay relative to control; type: cell-based; settings: RAW264.7 cells, up to 32 µM, read-out: Activity
[13] = Therapeutic index, ratio of MHC for human RBC to geometric mean of peptide MIC for Escherichia coli ATCC 25922; type: toxicity; settings: pooled result: one value given for 6 cell lines, strains, targets or settings, read-out: TI
Erythrocyte = test: Haemolytic activity in human erythrocytes assessed as lowest concentration causing 5% hemolysis after 1 hr; type: ADME, cell-based
Lipopolysaccharide (LPS) = test: Displacement of BODIPY-TR-cadaverine from Escherichia coli O111:B4 LPS assessed as increase in fluorescence intensity at 64 uM by spectrofluorophotometric method relative to control
[14] = Salmonella enterica subsp. enterica serovar Typhimurium

Compound	MIC (Escherichia coli [1])	Ratio [2]	MIC (Pseudomonas aeruginosa)	MIC (Acinetobacter baumannii [3])	MIC (Acinetobacter baumannii [4])	MIC (Staphylococcus aureus [5])	MIC (Salmonella typhimurium)	MIC (Staphylococcus aureus [6])	MIC (Escherichia coli [7])	MIC (Escherichia coli [8])	MIC [9]	MIC (Escherichia coli [10])	MIC (Staphylococcus aureus [11])	MIC (Salmonella typhimurium; [14])	viability at 24 h [12]	selectivity ratio [13]	MHC (Erythrocyte)	Activity (Lipopolysaccharide (LPS))
CC1COc2c(N3CCN(C)CC3)c(F)cc3c(=O)c(C(=O)O)cn1c23 (configuration not stated) [OFLOXACIN]	0.5 µM (≈ 0.181 µg/mL)	4	4 µM (≈ 1.45 µg/mL)	32 µM (≈ 11.6 µg/mL)	32 µM (≈ 11.6 µg/mL)	0.5 µM (≈ 0.181 µg/mL)	0.25 µM (≈ 0.0903 µg/mL)	1 µM (≈ 0.361 µg/mL)	0.125 µM (≈ 0.0452 µg/mL)	0.125 µM (≈ 0.0452 µg/mL)	0.5 µM (≈ 0.181 µg/mL)	0.5 µM (≈ 0.181 µg/mL)	1 µM (≈ 0.361 µg/mL)					
COLISTIN	0.5 µM	1	0.5 µM	1 µM	0.5 µM	128 µM		32 µM	0.5 µM	0.5 µM	64 µM	0.5 µM	128 µM	0.5 µM				
CC(C)(O/N=C(\C(=O)N[C@@H]1C(=O)N2C(C(=O)[O-])=C(C[n+]3ccccc3)CS[C@H]12)c1csc(N)n1)C(=O)O [CEFTAZIDIME]	0.25 µM (≈ 0.137 µg/mL)	32	32 µM (≈ 17.5 µg/mL)	> 128 µM	> 128 µM	16 µM (≈ 8.75 µg/mL)	0.5 µM (≈ 0.273 µg/mL)	16 µM (≈ 8.75 µg/mL)	0.5 µM (≈ 0.273 µg/mL)	0.25 µM (≈ 0.137 µg/mL)	16 µM (≈ 8.75 µg/mL)	16 µM (≈ 8.75 µg/mL)	32 µM (≈ 17.5 µg/mL)					
GENTAMICIN	4 µM	1	2 µM	> 128 µM	> 128 µM	0.5 µM		1 µM	4 µM	1 µM	0.5 µM	4 µM	0.25 µM	8 µM				
CO[C@H]1/C=C/O[C@@]2(C)Oc3c(C)c(O)c4c(O)c(c(/C=N/N5CCN(C)CC5)c(O)c4c3C2=O)NC(=O)/C(C)=C\C=C\[C@H](C)[C@H](O)[C@@H](C)[C@@H](O)[C@@H](C)[C@H](OC(C)=O)[C@@H]1C [RIFAMPIN]	8 µM (≈ 6.58 µg/mL)	2	16 µM (≈ 13.2 µg/mL)	1 µM (≈ 0.823 µg/mL)	1 µM (≈ 0.823 µg/mL)	0.25 µM (≈ 0.206 µg/mL)	4 µM (≈ 3.29 µg/mL)		4 µM (≈ 3.29 µg/mL)	4 µM (≈ 3.29 µg/mL)	0.25 µM (≈ 0.206 µg/mL)	8 µM (≈ 6.58 µg/mL)	0.25 µM (≈ 0.206 µg/mL)					
CC(C)C[C@H](NC(=O)[C@H](CCCNC(=N)N)NC(=O)[C@H](Cc1c[nH]c2ccccc12)NC(=O)[C@H](CCCNC(=N)N)NC(=O)[C@@H](NC(=O)[C@H](CCCCN)NC(=O)[C@H](Cc1c[nH]c2ccccc12)NC(=O)[C@H](CCCNC(=N)N)NC(=O)[C@H](CC(C)C)NC(=O)[C@H](CCCNC(=N)N)NC(=O)[C@@H](N)CCCNC(=N)N)[C@@H](C)O)C(=O)N[C@@H](CCCCN)C(N)=O (H-RRLRWKTRWRLK-NH2)	4 µM (≈ 7.02 µg/mL)					16 µM (≈ 28.1 µg/mL)	32 µM (≈ 56.1 µg/mL)		16 µM (≈ 28.1 µg/mL)		16 µM (≈ 28.1 µg/mL)		16 µM (≈ 28.1 µg/mL)		≥ 70%	18	> 128 µM	
O=C(O)c1cn(C2CC2)c2cc(N3CCNCC3)c(F)cc2c1=O [CIPROFLOXACIN]	2 µM (≈ 0.663 µg/mL)					0.5 µM (≈ 0.166 µg/mL)	4 µM (≈ 1.33 µg/mL)	0.5 µM (≈ 0.166 µg/mL)	2 µM (≈ 0.663 µg/mL)		0.5 µM (≈ 0.166 µg/mL)	256 µM (≈ 84.8 µg/mL)	0.5 µM (≈ 0.166 µg/mL)					1.6%
CC(C)C[C@H](NC(=O)[C@H](CCCNC(=N)N)NC(=O)[C@H](CCCCN)NC(=O)[C@H](Cc1c[nH]c2ccccc12)NC(=O)[C@@H](NC(=O)[C@H](CCCCN)NC(=O)[C@H](CCCCN)NC(=O)[C@H](Cc1c[nH]c2ccccc12)NC(=O)[C@H](CC(C)C)NC(=O)[C@H](CCCNC(=N)N)NC(=O)[C@@H](N)CCCNC(=N)N)[C@@H](C)O)C(=O)N[C@@H](Cc1c[nH]c2ccccc12)C(N)=O (H-RRLWKKTWKRLW-NH2)	4 µM (≈ 7.02 µg/mL)					8 µM (≈ 14 µg/mL)	8 µM (≈ 14 µg/mL)		4 µM (≈ 7.02 µg/mL)		8 µM (≈ 14 µg/mL)		16 µM (≈ 28.1 µg/mL)		≥ 70%	35.9	> 128 µM	
CC(C)C[C@H](NC(=O)[C@H](CCCNC(=N)N)NC(=O)[C@H](Cc1c[nH]c2ccccc12)NC(=O)[C@H](CCCNC(=N)N)NC(=O)[C@@H](NC(=O)[C@H](CCCCN)NC(=O)[C@H](Cc1c[nH]c2ccccc12)NC(=O)[C@H](CCCNC(=N)N)NC(=O)[C@H](CC(C)C)NC(=O)[C@H](Cc1c[nH]c2ccccc12)NC(=O)[C@@H](N)CCCNC(=N)N)[C@@H](C)O)C(=O)N[C@@H](CCCCN)C(N)=O (H-RWLRWKTRWRLK-NH2)	4 µM (≈ 7.14 µg/mL)					4 µM (≈ 7.14 µg/mL)	8 µM (≈ 14.3 µg/mL)		2 µM (≈ 3.57 µg/mL)		16 µM (≈ 28.5 µg/mL)		16 µM (≈ 28.5 µg/mL)		≥ 70%	40.3	> 128 µM	
CC(C)C[C@H](NC(=O)[C@H](CCCNC(=N)N)NC(=O)[C@H](CC(C)C)NC(=O)[C@H](CCCNC(=N)N)NC(=O)[C@@H](NC(=O)[C@H](CCCCN)NC(=O)[C@H](CC(C)C)NC(=O)[C@H](CCCNC(=N)N)NC(=O)[C@H](CC(C)C)NC(=O)[C@H](CCCNC(=N)N)NC(=O)[C@@H](N)CC(C)C)[C@@H](C)O)C(=O)N[C@@H](CCCCN)C(N)=O (H-LRLRLKTRLRLK-NH2)	4 µM (≈ 6.26 µg/mL)					32 µM (≈ 50.1 µg/mL)	16 µM (≈ 25 µg/mL)		4 µM (≈ 6.26 µg/mL)		64 µM (≈ 100 µg/mL)		32 µM (≈ 50.1 µg/mL)		≥ 70%	16	> 128 µM	
CC(C)C[C@H](NC(=O)[C@H](CCCNC(=N)N)NC(=O)[C@H](Cc1c[nH]c2ccccc12)NC(=O)[C@H](CCCNC(=N)N)NC(=O)[C@@H](NC(=O)[C@H](Cc1c[nH]c2ccccc12)NC(=O)[C@H](Cc1c[nH]c2ccccc12)NC(=O)[C@H](CCCNC(=N)N)NC(=O)[C@H](CC(C)C)NC(=O)[C@H](CCCNC(=N)N)NC(=O)[C@@H](N)CCCNC(=N)N)[C@@H](C)O)C(=O)N[C@@H](CCCCN)C(N)=O (H-RRLRWWTRWRLK-NH2)	4 µM (≈ 7.25 µg/mL)					4 µM (≈ 7.25 µg/mL)	8 µM (≈ 14.5 µg/mL)		4 µM (≈ 7.25 µg/mL)		8 µM (≈ 14.5 µg/mL)		8 µM (≈ 14.5 µg/mL)		≥ 70%	45.2	> 128 µM	
CN(C)c1ccc(O)c2c1C[C@H]1C[C@H]3[C@H](N(C)C)C(O)=C(C(N)=O)C(=O)[C@@]3(O)C(O)=C1C2=O [MINOCYCLINE]	4 µM (≈ 1.83 µg/mL)	64	8 µM (≈ 3.66 µg/mL)	0.25 µM (≈ 0.114 µg/mL)	0.25 µM (≈ 0.114 µg/mL)	0.25 µM (≈ 0.114 µg/mL)	8 µM (≈ 3.66 µg/mL)	0.25 µM (≈ 0.114 µg/mL)	1 µM (≈ 0.457 µg/mL)	2 µM (≈ 0.915 µg/mL)	0.25 µM (≈ 0.114 µg/mL)	64 µM (≈ 29.3 µg/mL)	0.25 µM (≈ 0.114 µg/mL)					
CC(C)C[C@H](NC(=O)[C@H](CCCNC(=N)N)NC(=O)[C@@H](NC(=O)[C@H](CCCNC(=N)N)NC(=O)[C@@H](NC(=O)[C@H](CCCCN)NC(=O)[C@@H](NC(=O)[C@H](CCCNC(=N)N)NC(=O)[C@H](CC(C)C)NC(=O)[C@H](CCCNC(=N)N)NC(=O)[C@@H](N)C(C)C)C(C)C)[C@@H](C)O)C(C)C)C(=O)N[C@@H](CCCCN)C(N)=O (H-VRLRVKTRVRLK-NH2)	4 µM (≈ 6.09 µg/mL)					16 µM (≈ 24.4 µg/mL)	16 µM (≈ 24.4 µg/mL)		4 µM (≈ 6.09 µg/mL)		32 µM (≈ 48.7 µg/mL)		64 µM (≈ 97.5 µg/mL)		≥ 70%	18	> 128 µM	
CCn1cc(C(=O)O)c(=O)c2cc(F)c(N3CCNCC3)cc21 [NORFLOXACIN]	4 µM (≈ 1.28 µg/mL)		2 µM (≈ 0.639 µg/mL)	> 128 µM	> 128 µM	1 µM (≈ 0.319 µg/mL)	0.25 µM (≈ 0.0798 µg/mL)	2 µM (≈ 0.639 µg/mL)	0.125 µM (≈ 0.0399 µg/mL)	0.0625 µM (≈ 0.02 µg/mL)	1 µM (≈ 0.319 µg/mL)	1 µM (≈ 0.319 µg/mL)	2 µM (≈ 0.639 µg/mL)					
